Data set [1] deals with T1, TTR (Homo sapiens (Human), UniProt P02766). Kind of data set: Fluorescence polarization displacement of probe 5 from TTR. The note with it: probe 5 100 nM, TTR 200 nM.
Data set [2] concerns WT TTR cytotoxicity in IMR-32 neuroblastoma cells. Kind of data set: Inhibition of WT TTR-induced cytotoxicity, resazurin reduction. The note with it: TTR and ligand 8 μM, 24 h.
Data set [3] deals with V1221 TTR cytotoxicity in AC16 cardiac cells. Kind of data set: Inhibition of V1221 TTR-induced cytotoxicity, resazurin reduction. As to conditions: TTR and ligand 8 μM, 24 h.
For data set [4], the target named is wild type biotinylated TTR (Homo sapiens (Human), UniProt P02766). Kind of data set: Surface plasmon resonance on immobilized biotinylated TTR. In kind it is binding. As to conditions: SPR. The method, then:
To an ice-cold solution of TTR (20 μM) in PBS was added EZ-Link Sulfo-NHS-LC-Biotin at a ratio of ˜2:1 (biotin:TTR) (minimal biotinylation) and the solution was incubated at room temperature. After 1 hour, un-reacted biotin was removed by passing the sample over a fast (FPLC) desalting column (Superdex™ 75) equilibrated with PBS.
SPR measurements were performed at 25° C. using a Biacore T100 (GE Healthcare) instrument equilibrated in 1% DMSO in PBS as a running buffer. After pretreatment of the streptavidin-coated chip (Sensor Chop SA, Biacore), ˜4000 RU biotinylated TTR was immobilized on one channel leaving the second flow channel as a blank (streptavidin alone) control. For binding measurements, HTS hits were diluted in running buffer (1% DMSO/PBS) and different dilution series were flowed over the chip at 50 μL/min ([…], 600 s wash). A zero concentration sample was used as a negative control. The kinetic data was fitted to a one-to-one binding model using Biacore T100 evaluation software.

For another data set, the target named is WT TTR (Homo sapiens (Human), UniProt P02766). Kind of data set: Acid-mediated fibril formation (turbidity) assay for TTR amyloidogenesis.
The target of data set [5] is human TTR (wild type, from human plasma) (Homo sapiens (Human), UniProt P02766). As to the kind of experiment: Isothermal titration calorimetry (ITC) of ligands against TTR. It counts as binding. As to conditions: 5 versus 4. On the procedure:
Calorimetric titrations were carried out on a VP-ITC calorimeter (MicroCal, Northhampton, Mass.). […] Prior to each titration, all samples were degassed for 10 minutes. The initial injection of 3.0 μL was followed by 30 injections of 8.0 μL each (25° C.) to the point that TTR was fully saturated with ligand. Integration of the thermogram after subtraction of blanks yielded a binding isotherm that was analyzed with MicroCal Origin 5.0 software.

The target in data set [6] is T1, TTR. Kind of data set: FP saturation binding experiment. The note with it: FITC alone. The method, then:
The binding of probe 5 for TTR was evaluated as follows. […] The samples were allowed to equilibrate by agitation for 20 min at room temperature. Fluorescence polarization (excitation λ 485 nm, emission λ 525 nm, Cutoff λ 515 nm) measurements were taken using SpectraMax M5 Microplate Reader (Molecular Devices). […] Nonspecific FP, produced by the free fluorescent probe 5 as well as by binding of 5 to the plate, was equal to 70±10 mP.

Experimental findings from US10278929B2, “Identification of stabilizers of multimeric proteins” (The Board of Trustees of the Leland Stanford Junior …, priority 2010, dated 2019) are described below.

“And” between values parts separate entries of the source, which are not always exact repeats. Equal values may be shown once. Read-outs that look alike come from different tables or passages of the source.

In the case of `O=C(O)c1ccc(-c2c(F)cccc2F)cc1` [Compound 1], at TTR [1], the “FP Kapp (apparent binding constant)” value is 0.231 μM and 0.231 (R^2 = 0.997) μM.

Consider `O=[N+]([O-])c1cc(O)c(O)c([N+](=O)[O-])c1` [3,5-dinitrocatechol], for which the “Prevention of WT TTR-induced cytotoxicity” value in data set [2] was “poor inhibitor”. Further, the “Prevention of V1221 TTR-induced cytotoxicity” value in data set [3] was “poor inhibitor”.

Turning to `O=C(O)Cc1ccccc1Nc1c(Cl)cccc1Cl` [Diclofenac], the “FP Kapp (apparent binding constant)” value at TTR [1] was 4.66 µM. Also, the “target residence time, fold lower than 7” value in data set [4] is reported as roughly 40 ×.

`O=C(c1cc(O)c(O)c([N+](=O)[O-])c1)c1ccccc1F` [Ro 41-0960]: the “Prevention of WT TTR-induced cytotoxicity” value in data set [2] was “completely prevented TTR-induced cytotoxicity”. The “Inhibition of fibril formation at substoichiometric ligand” value on WT TTR is recorded as greater than 75%. Besides, the “Prevention of V1221 TTR-induced cytotoxicity” value in data set [3] was “completely prevented TTR-induced cytotoxicity”.

With `O=C(O)c1cccnc1Nc1cccc(C(F)(F)F)c1` [Niflumic acid, niflumic acid], in data set [3], the “Prevention of V1221 TTR-induced cytotoxicity” value is recorded as “relatively poor inhibitor”.

Take `O=C(O)c1ccccc1Nc1cc(Cl)c(OCCOCCOCCNC(=S)Nc2ccc3c(c2)C(=O)OC32c3ccc(O)cc3Oc3cc(O)ccc32)c(Cl)c1` [Compound 5, 2-(3,5-dichloro-4-(2-(2-(2-(3-(3′,6′-dihydroxy-3-oxo-3H-spiro[isobenzofuran-1,9′-xanthene]-5-yl)thioureido)ethoxy)ethoxy)ethoxy)phenylamino)benzoic acid]: in data set [5], the “Fold decrease in binding affinity to TTR on attaching FITC to 4” value is roughly 3 fold.

On to fluorescein isothiocyanate [FITC], for which the “Change in FP signal upon addition of TTR” value at TTR [6] is reported as “no change in the FP signal”.

For the molecule `Cc1n[nH]c(C)c1CCc1nc2c3ccccc3[nH]c(=O)n2n1` [Compound 15], the “Inhibition of fibril formation at substoichiometric ligand” value on WT TTR (ligand 3.0 μM, TTR 3.6 μM, monitored over 5 days) is on record as greater than 75%.
